Measured values taken from patent US20080200655A1, “Protein Formulations Containing Sorbitol” (Wyeth, priority 2007, published 2008).

Tests used:
MAB-002 = test: Five freeze-thaw cycles of MAB-002 in formulations with different polyols, HMW species formation; type: physicochemical; conditions: MAB-002 5 mg/ml, 10 mM histidine pH 6.0, various polyol concentrations
Procedure: This experiment compared mannitol to other polyols with different maximum solubilities with respect to their abilities to induce aggregation during freeze-thaw. A monoclonal antibody referred to as MAB-002 was dialyzed into different liquid formulations containing mannitol, galactitol, or sorbitol, respectively, at various concentrations. Each formulation also contained 10 mM histidine, pH 6.0. The final concentration of MAB-002 in each of the liquid formulations was 5 mg/ml. Each formulation was then subject to five cycles of freeze-thaw, and monitored for HMW species formation. Changes in the percentage of HMW species was plotted against the polyol concentrations in FIG. 3.

[1] = cited from earlier work
[2] = system: four monoclonal antibodies (mAb2, mAb3, mAb4, mAb5), a cytokine and a fusion protein; test: Five freeze-thaw cycles of six proteins in 250 mM mannitol or sorbitol, HMW species formation; type: physicochemical; conditions: each protein 1 mg/ml, 10 mM histidine pH 6.0, 250 mM polyol
Procedure: Six different proteins including four different monoclonal antibodies (referred to as mAb2, mAb3, mAb4, and mAb5), a cytokine and a fusion protein were dialyzed into 10 mM histidine, pH 6.0, and 250 mM mannitol or sorbitol. The final concentration of each protein was 1 mg/ml. The formulations were then subject to five cycles of freeze-thaw as described above, and monitored for HMW species formation.

[3] = Sub ambient DSC scan of formulation during cooling and warming; type: physicochemical; conditions: formulation containing the polyol

SMILES	Induction of aggregation (change in percentage of HMW species) (MAB-002)	Maximum solubility [1] [mM]	Protein aggregation (HMW species formation) [2]	Crystallization during cooling and warming [3]
OC[C@@H](O)[C@H](O)[C@H](O)[C@@H](O)CO [galactitol]	induced aggregation at low concentrations and at a faster rate compared to mannitol	180	–	–
OC[C@@H](O)[C@@H](O)[C@H](O)[C@@H](O)CO [sorbitol]	did not induce aggregation significantly compared to mannitol	4500	suppresses aggregation of multiple proteins	no crystallization occurred
OC[C@@H](O)[C@@H](O)[C@H](O)[C@H](O)CO [mannitol]	–	1000	considerably more protein aggregation	–
